Reference: ChEMBL document CHEMBL5223111, “Total synthesis and antibacterial evaluation of Empetroxepins A and B and related analogs” (2022)
In brackets after ≈: the same amount, converted by molar mass.

Tests used:
Type in all cases: functional
[1] = tested on: Escherichia coli; experiment: Antibacterial activity against Escherichia coli assessed as reduction in pathogen growth
[2] = tested on: Staphylococcus aureus; experiment: Antibacterial activity against Staphylococcus aureus assessed as reduction in pathogen growth
[3] = tested on: Bacillus subtilis; experiment: Antibacterial activity against Bacillus subtilis assessed as reduction in pathogen growth

SMILES	MIC [1] [µg/mL]	MIC [2] [µg/mL]	MIC [3] [µg/mL]
COc1ccc2c(c1)CCc1cc(O)c(OC)c(O)c1O2	> 256	128 (≈ 444 µM)	128 (≈ 444 µM)
Oc1cc2c(c(O)c1O)Oc1ccccc1CC2	> 256	64 (≈ 262 µM)	128 (≈ 524 µM)
COc1cc2c(c(O)c1OC)Oc1ccccc1CC2	> 256	> 256	256 (≈ 940 µM)
COc1c(O)cc2c(c1O)Oc1ccc(Br)cc1CC2	> 256	16 (≈ 47.5 µM)	16 (≈ 47.5 µM)
Oc1cc2c(c(O)c1O)Oc1cccc(Cl)c1CC2	256 (≈ 919 µM)	8 (≈ 28.7 µM)	16 (≈ 57.4 µM)
Oc1cc2c(c(O)c1O)Oc1c(Cl)cccc1CC2	> 256	32 (≈ 115 µM)	32 (≈ 115 µM)
COc1c(O)cc2c(c1O)Oc1ccc(NCc3ccccc3)cc1CC2	> 256	64 (≈ 176 µM)	64 (≈ 176 µM)
COc1c(O)cc2c(c1O)Oc1ccc(Nc3ccccc3)cc1CC2	> 256	32 (≈ 91.6 µM)	32 (≈ 91.6 µM)
COc1c(O)cc2c(c1O)Oc1ccc(-c3ccccc3)cc1CC2	> 256	16 (≈ 47.9 µM)	16 (≈ 47.9 µM)
COc1c(O)cc2c(c1O)Oc1ccc(N3CCOCC3)cc1CC2	> 256	256 (≈ 746 µM)	256 (≈ 746 µM)
COc1c(O)cc2c(c1O)Oc1ccc(N3CCCCC3)cc1CC2	> 256	128 (≈ 375 µM)	64 (≈ 187 µM)
Cc1ccc2c(c1)CCc1cc(O)c(O)c(O)c1O2	256 (≈ 991 µM)	16 (≈ 61.9 µM)	32 (≈ 124 µM)
COc1c(O)cc2c(c1O)Oc1ccc(O)cc1CC2	> 256	256 (≈ 933 µM)	256 (≈ 933 µM)
CCN(CC)c1ccc2c(c1)CCc1cc(O)c(OC)c(O)c1O2	> 256	64 (≈ 194 µM)	64 (≈ 194 µM)
Oc1cc2c(c(O)c1O)Oc1ccc(Br)cc1CC2	> 256	16 (≈ 49.5 µM)	8 (≈ 24.8 µM)
Oc1cc2c(c(O)c1O)Oc1ccc(Cl)cc1CC2	> 256	64 (≈ 230 µM)	128 (≈ 459 µM)
COc1c(O)cc2c(c1O)Oc1ccccc1CC2	> 256	256 (≈ 991 µM)	256 (≈ 991 µM)
O=C(N[C@H](CO)[C@H](O)c1ccc([N+](=O)[O-])cc1)C(Cl)Cl [CHLORAMPHENICOL]	8 (≈ 24.8 µM)	8 (≈ 24.8 µM)	4 (≈ 12.4 µM)
COc1c(O)cc2c(c1OC)Oc1ccccc1CC2	> 256	256 (≈ 940 µM)	256 (≈ 940 µM)

The remaining lines, values ahead:

MIC [1] [µg/mL]	MIC [2] [µg/mL]	MIC [3] [µg/mL]	SMILES
> 256	> 256	> 256	COc1cc2c(c(OC)c1OC)Oc1ccccc1CC2
> 256	> 256	> 256	COc1cc2c(c(OC)c1OC)Oc1ccc(Nc3ccccc3)cc1CC2
> 256	16 (≈ 45.6 µM)	16 (≈ 45.6 µM)	COc1c(O)cc2c(c1OC)Oc1ccc(Br)cc1CC2
> 256	> 256	> 256	COc1cc2c(c(OC)c1OC)Oc1c(Cl)cccc1CC2
> 256	> 256	> 256	COC(=O)c1ccccc1-c1ccc2c(c1)CCc1cc(OC)c(OC)c(OC)c1O2
> 256	> 256	> 256	COc1cc2c(c(OC)c1OC)Oc1ccc(N3CCOCC3)cc1CC2
> 256	> 256	> 256	COc1cc2c(c(OC)c1OC)Oc1ccc(-c3ccccc3)cc1CC2
> 256	> 256	> 256	COc1cc2c(c(OC)c1OC)Oc1ccc(N)cc1CC2
> 256	> 256	> 256	COc1ccc(-c2ccc3c(c2)CCc2cc(OC)c(OC)c(OC)c2O3)cc1
> 256	32 (≈ 91.1 µM)	32 (≈ 91.1 µM)	COc1cc2c(c(O)c1OC)Oc1ccc(Br)cc1CC2
> 256	> 256	> 256	COc1cc2c(c(OC)c1OC)Oc1ccc(Cl)cc1CC2
> 256	> 256	> 256	COc1ccc2c(c1)CCc1cc(OC)c(OC)c(OC)c1O2
> 256	> 256	> 256	CCN(CC)c1ccc2c(c1)CCc1cc(OC)c(OC)c(OC)c1O2
> 256	> 256	> 256	COc1cc2c(c(OC)c1OC)Oc1cccc(Cl)c1CC2
> 256	> 256	> 256	COc1cc2c(c(OC)c1OC)Oc1ccc(NCc3ccccc3)cc1CC2
> 256	> 256	> 256	COc1cc2c(c(OC)c1OC)Oc1ccc(N3CCCCC3)cc1CC2
> 256	> 256	> 256	COc1cc2c(c(OC)c1OC)Oc1ccc(Br)cc1CC2
> 256	> 256	> 256	COc1cc2c(c(OC)c1OC)Oc1ccc(C)cc1CC2
